Biological target: MALT1 (Homo sapiens (Human), UniProt Q9UDY8)
Experiment: MALT1 enzymatic activity inhibition (fluorescence, Ac-LRSR-AMC substrate)
Format: biochemical
Details: recombinant MALT1 1.5 ng/μl, Ac-LRSR-AMC 1 μM
How it was run: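 Recombinant human MALT1 (1.5 ng/μl final) preincubated 10 min at rt with compounds in 50 mM HEPES pH 7.2-7.4, 100 mM NaCl, 900 mM sodium citrate, 10 mM DTT; 1 μM Ac-LRSR-AMC then added. AMC fluorescence read at start and after 30 min 37 °C plus 30 min rt; difference gives signal, % inhibition fitted to IC50.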

Sequence of MALT1 (Q9UDY8 whole entry): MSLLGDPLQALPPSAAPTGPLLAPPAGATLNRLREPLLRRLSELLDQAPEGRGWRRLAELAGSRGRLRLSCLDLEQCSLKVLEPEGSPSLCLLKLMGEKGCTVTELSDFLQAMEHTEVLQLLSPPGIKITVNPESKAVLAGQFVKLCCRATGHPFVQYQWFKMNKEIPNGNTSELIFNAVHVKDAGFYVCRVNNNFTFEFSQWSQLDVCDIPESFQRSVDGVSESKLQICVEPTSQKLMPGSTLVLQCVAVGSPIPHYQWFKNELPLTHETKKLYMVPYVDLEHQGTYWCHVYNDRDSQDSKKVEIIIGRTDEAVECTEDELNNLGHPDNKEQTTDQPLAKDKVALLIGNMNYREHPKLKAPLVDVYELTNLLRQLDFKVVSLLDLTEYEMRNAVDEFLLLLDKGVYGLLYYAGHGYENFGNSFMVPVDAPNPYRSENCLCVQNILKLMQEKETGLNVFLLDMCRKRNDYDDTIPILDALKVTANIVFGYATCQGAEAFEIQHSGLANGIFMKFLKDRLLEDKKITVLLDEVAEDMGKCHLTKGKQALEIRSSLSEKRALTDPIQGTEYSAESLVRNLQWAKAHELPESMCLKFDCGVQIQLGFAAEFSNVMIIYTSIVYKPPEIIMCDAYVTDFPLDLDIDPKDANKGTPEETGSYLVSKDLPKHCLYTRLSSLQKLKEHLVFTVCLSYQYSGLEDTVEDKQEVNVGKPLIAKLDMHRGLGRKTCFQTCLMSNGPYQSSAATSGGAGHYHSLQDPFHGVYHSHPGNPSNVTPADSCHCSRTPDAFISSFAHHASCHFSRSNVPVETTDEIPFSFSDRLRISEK

EC50 [µM] | SMILES
≤ 0.2 | Cc1cc(NC(=O)Nc2cnc3ccnn3c2C(C)C)cnc1-c1noc(CCCCC(=O)N2CCN(c3ccc4c(c3)CN(C3CCC(=O)N(COC(=O)C(C)(C)C)C3=O)C4=O)CC2)n1 (stereo not shown) [Compound 130, [3-[5-[4-[5-[3-[5-[(7-isopropylpyrazolo[1,5-a]pyrimidin-6-yl)carbamoylamino]-3-methyl-2-pyridyl]-1,2,4-oxadiazol-5-yl]pentanoyl]piperazin-1-yl]-1-oxo-isoindolin-2-yl]-2,6-dioxo-1-piperidyl]methyl 2,2-dimethylpropanoate]
≤ 0.2 | Cc1cc(NC(=O)Nc2cnc3ccnn3c2C(C)C)cnc1-c1noc(CCCCCC(=O)N2CCN(c3ccc4c(c3)CN(C3CCC(=O)N(COC(=O)C(C)(C)C)C3=O)C4=O)CC2)n1 (stereo not shown) [Compound 131, [3-[5-[4-[6-[3-[5-[(7-isopropylpyrazolo[1,5-a]pyrimidin-6-yl)carbamoylamino]-3-methyl-2-pyridyl]-1,2,4-oxadiazol-5-yl]hexanoyl]piperazin-1-yl]-1-oxo-isoindolin-2-yl]-2,6-dioxo-1-piperidyl]methyl 2,2-dimethylpropanoate]
0.2 to 0.5 | Cc1cc(NC(=O)Nc2cnc3ccnn3c2C2CCCCC2)cnc1-c1noc(CCCCCN2CCN(c3ccc4c(c3)CN(C3CCC(=O)NC3=O)C4=O)CC2)n1 (stereo not shown) [Compound 132, 1-(7-cyclohexylpyrazolo[1,5-a]pyrimidin-6-yl)-3-[6-[5-[5-[4-[2-(2,6-dioxo-3-piperidyl)-1-oxo-isoindolin-5-yl]piperazin-1-yl]pentyl]-1,2,4-oxadiazol-3-yl]-5-methyl-3-pyridyl]urea]
≤ 0.2 | O=C1CCC(N2Cc3cc(N4CCN(CCCCCCc5nc(-c6ncc(NC(=O)Nc7cnc8ccnn8c7C7CCCC7)cc6C(F)(F)F)no5)CC4)ccc3C2=O)C(=O)N1 (stereo not shown) [Compound 133, 1-(7-cyclopentylpyrazolo[1,5-a]pyrimidin-6-yl)-3-[6-[5-[6-[4-[2-(2,6-dioxo-3-piperidyl)-1-oxo-isoindolin-5-yl]piperazin-1-yl]hexyl]-1,2,4-oxadiazol-3-yl]-5-(trifluoromethyl)-3-pyridyl]urea]
≤ 0.2 | CC(C)(C)C(=O)OCN1C(=O)CCC(N2Cc3cc(N4CCN(C(=O)CCCCc5nc(-c6ncc(NC(=O)Nc7cnc8ccnn8c7C7CCCC7)cc6Cl)no5)CC4)ccc3C2=O)C1=O (stereo not shown) [Compound 134, [3-[5-[4-[5-[3-[3-chloro-5-[(7-cyclopentylpyrazolo[1,5-a]pyrimidin-6-yl)carbamoylamino]-2-pyridyl]-1,2,4-oxadiazol-5-yl]pentanoyl]piperazin-1-yl]-1-oxo-isoindolin-2-yl]-2,6-dioxo-1-piperidyl]methyl 2,2-dimethylpropanoate]
≤ 0.2 | CC(C)c1c(NC(=O)Nc2cnc(-c3noc(CCCC(=O)N4CCN(c5ccc6c(c5)CN(C5CCC(=O)N(C)C5=O)C6=O)CC4)n3)c(Cl)c2)cnc2ccnn12 (stereo not shown) [Compound 135, 1-[5-chloro-6-[5-[4-[4-[2-(1-methyl-2,6-dioxo-3-piperidyl)-1-oxo-isoindolin-5-yl]piperazin-1-yl]-4-oxo-butyl]-1,2,4-oxadiazol-3-yl]-3-pyridyl]-3-(7-isopropylpyrazolo[1,5-a]pyrimidin-6-yl)urea]
≤ 0.2 | CC(C)c1c(NC(=O)Nc2cnc(-c3noc(CCCCC(=O)N4CCN(c5ccc6c(c5)CN(C5CCC(=O)N(C)C5=O)C6=O)CC4)n3)c(Cl)c2)cnc2ccnn12 (stereo not shown) [Compound 136, 1-[5-chloro-6-[5-[5-[4-[2-(1-methyl-2,6-dioxo-3-piperidyl)-1-oxo-isoindolin-5-yl]piperazin-1-yl]-5-oxo-pentyl]-1,2,4-oxadiazol-3-yl]-3-pyridyl]-3-(7-isopropylpyrazolo[1,5-a]pyrimidin-6-yl)urea]
